Data taken from ChEMBL document CHEMBL1127173, “EPSP synthase inhibitor deisgn III. Synthesis & evaluation of a new 5-oxamic acid analog of EPSP which incorporates a malonate ether as a 3-phosphate mimic” (Bioorg Med Chem Lett, 1993).

Molecular target: T1, 3-phosphoshikimate 1-carboxyvinyltransferase (Escherichia coli K-12, UniProt P0A6D3)
T1 sequence (P0A6D3 whole entry): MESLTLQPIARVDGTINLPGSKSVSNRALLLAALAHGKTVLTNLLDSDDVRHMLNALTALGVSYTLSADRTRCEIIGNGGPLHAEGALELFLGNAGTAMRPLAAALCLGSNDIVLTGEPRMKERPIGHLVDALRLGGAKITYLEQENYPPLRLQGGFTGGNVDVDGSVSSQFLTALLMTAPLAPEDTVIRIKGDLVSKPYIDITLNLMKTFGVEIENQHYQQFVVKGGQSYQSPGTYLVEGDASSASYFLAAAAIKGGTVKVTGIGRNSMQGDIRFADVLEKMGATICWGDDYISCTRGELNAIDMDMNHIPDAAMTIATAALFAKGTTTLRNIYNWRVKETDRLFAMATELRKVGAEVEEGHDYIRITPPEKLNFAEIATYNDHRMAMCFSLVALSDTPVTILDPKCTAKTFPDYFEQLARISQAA
Experiment: The compound was tested for the inhibition of Escherichia coli 5-enolpyruvyl-shikimate-3-phosphate synthase (EPSP).

Structure (SMILES) | Ki [µM] | IC50 [µM]
O=C(O)CO[C@@H]1CC(C(=O)O)=C[C@@H](OP(=O)(O)O)[C@H]1O | 1.5 | –
O=C(O)C(=O)N[C@@H]1CC(C(=O)O)=C[C@@H](OC(C(=O)O)C(=O)O)[C@H]1O | 5.2 | –
N[C@@H]1CC(C(=O)O)=C[C@@H](OP(=O)(O)O)[C@H]1O | 90 | –
O=C(O)C(=O)N[C@@H]1CC(C(=O)O)=C[C@@H](O)[C@H]1O | – | > 10000
